Results: patent US20240343681A1, “MOLECULES HAVING PESTICIDAL UTILITY AND INTERMEDIATES AND PROCESSES RELATED THERETO” (priority 2021, published 2024)

What follows are compounds tested on Beet Armyworm (Spodoptera exigua, LAPHEG) second instar larva (assay: Bioassay on beet armyworm (BAW), 128-well diet tray assay). Conditions: 50 μg/cm^2 on artificial diet, 25° C., five days.
Assay type: in vivo
Protocol: Example A: Bioassays on Beet Armyworm (Spodoptera exigua, LAPHEG) (“BAW”) and Cabbage Looper (Trichoplusia ni, TRIPNI) (“CL”)
Bioassays on BAW were conducted using a 128-well diet tray assay. One second instar BAW larva was placed in each well (8 wells total) of the diet tray that had been previously filled with 1 mL of artificial diet to which 50 μg/cm^2 of the test molecule (dissolved in 50 μL of 90:10 acetone-water mixture) had been applied (to each of eight wells) and then allowed to dry. Trays were covered with a clear self-adhesive cover, vented to allow gas exchange, and held at 25° C., 14:10 light-dark for five days. Percent mortality was recorded for the larvae in each well; activity in the eight wells was then averaged.

| SMILES | activity against BAW (percent mortality, averaged over eight wells) |
| --- | --- |
| O=C(CC(F)(F)F)Nc1cc(NC(=O)[C@H]2[C@H](c3cc(Cl)cc(Cl)c3)C2(Cl)Cl)ccc1Cl (racemic) [F5, trans-rac-2,2-Dichloro-N-(4-chloro-3-(3,3,3-trifluoropropanamido)phenyl)-3-(3,5-dichlorophenyl)cyclopropane-1-carboxamide] | exhibited activity |
| CC(C(=O)Nc1cc(NC(=O)C2C(c3cc(Cl)cc(Cl)c3)C2(Cl)Cl)ccc1Cl)C(F)(F)F (racemic) [F6, trans-rac-2,2-Dichloro-N-(4-chloro-3-(3,3,3-trifluoro-2-methylpropanamido)phenyl)-3-(3,5-dichlorophenyl)cyclopropane-1-carboxamide] | exhibited activity |
| CC(CC(F)(F)F)C(=O)Nc1cc(NC(=O)C2C(c3cc(Cl)cc(Cl)c3)C2(Cl)Cl)ccc1Cl (racemic) [F8, trans-rac-2,2-Dichloro-N-(4-chloro-3-(4,4,4-trifluoro-2-methylbutanamido)phenyl)-3-(3,5-dichlorophenyl)cyclopropane-1-carboxamide] | exhibited activity |
| CC(CC(=O)Nc1cc(NC(=O)C2C(c3cc(Cl)cc(Cl)c3)C2(Cl)Cl)ccc1Cl)C(F)(F)F (racemic) [F9, trans-rac-2,2-Dichloro-N-(4-chloro-3-(4,4,4-trifluoro-3-methylbutanamido)phenyl)-3-(3,5-dichlorophenyl)cyclopropane-1-carboxamide] | exhibited activity |
| O=C(Nc1cc(NC(=O)[C@H]2[C@H](c3cc(Cl)cc(Cl)c3)C2(Cl)Cl)ccc1Cl)c1ccc(F)cc1F (racemic) [F24, trans-rac-N-(2-Chloro-5-(2,2-dichloro-3-(3,5-dichlorophenyl)cyclopropane-1-carboxamido)phenyl)-2,4-difluorobenzamide] | exhibited activity |
| O=C(Nc1cc(NC(=O)[C@H]2[C@H](c3cc(Cl)cc(Cl)c3)C2(Cl)Cl)ccc1Cl)c1cc(F)cc(F)c1 (racemic) [F26, trans-rac-N-(2-chloro-5-(2,2-dichloro-3-(3,5-dichlorophenyl)cyclopropane-1-carboxamido)phenyl)-3,5-difluorobenzamide] | exhibited activity |
| Cc1cc(C#N)ccc1C(=O)Nc1cc(NC(=O)[C@H]2[C@H](c3cc(Cl)cc(Cl)c3)C2(Cl)Cl)ccc1Cl (racemic) [F27, trans-rac-N-(2-Chloro-5-(2,2-dichloro-3-(3,5-dichlorophenyl)cyclopropane-1-carboxamido)phenyl)-4-cyano-2-methylbenzamide] | exhibited activity |
| O=C(Nc1cc(NC(=O)[C@H]2[C@H](c3cc(Cl)cc(Cl)c3)C2(Cl)Cl)ccc1Cl)c1ccc(F)cn1 (racemic) [F30, trans-rac-N-(2-Chloro-5-(2,2-dichloro-3-(3,5-dichlorophenyl)cyclopropane-1-carboxamido)phenyl)-5-fluoropicolinamide] | exhibited activity |
| O=C(Nc1cc(NC(=O)[C@H]2[C@H](c3cc(Cl)cc(Cl)c3)C2(Cl)Cl)ccc1Cl)c1ccncn1 (racemic) [F32, trans-rac-N-(2-Chloro-5-(2,2-dichloro-3-(3,5-dichlorophenyl)cyclopropane-1-carboxamido)phenyl)pyrimidine-4-carboxamide] | exhibited activity |
| O=C(Nc1cc(NC(=O)[C@H]2[C@H](c3cc(Cl)cc(Cl)c3)C2(Cl)Cl)ccc1Cl)c1ccco1 (racemic) [F34, trans-rac-N-(2-Chloro-5-(2,2-dichloro-3-(3,5-dichlorophenyl)cyclopropane-1-carboxamido)phenyl)furan-2-carboxamide] | exhibited activity |
| O=C(Nc1cc(NC(=O)[C@H]2[C@H](c3cc(Cl)cc(Cl)c3)C2(Cl)Cl)ccc1Cl)c1nc(C(F)(F)F)cs1 (racemic) [F36, trans-rac-N-(2-Chloro-5-(2,2-dichloro-3-(3,5-dichlorophenyl)cyclopropane-1-carboxamido)phenyl)-4-(trifluoromethyl)thiazole-2-carboxamide] | exhibited activity |
| O=C(Nc1cc(NC(=O)[C@H]2[C@H](c3cc(Cl)cc(Cl)c3)C2(Cl)Cl)ccc1Cl)c1cc(=O)[nH]o1 (racemic) [F37, trans-rac-N-(2-Chloro-5-(2,2-dichloro-3-(3,5-dichlorophenyl)cyclopropane-1-carboxamido)phenyl)-3-oxo-2,3-dihydroisoxazole-5-carboxamide] | exhibited activity |
| O=C(Nc1cc(NC(=O)C2C(c3cc(Cl)cc(Cl)c3)C2(Cl)Cl)ccc1Cl)C1CCCO1 (racemic) [F38, trans-rac-N-(2-Chloro-5-(2,2-dichloro-3-(3,5-dichlorophenyl)cyclopropane-1-carboxamido)phenyl)tetrahydrofuran-2-carboxamide] | exhibited activity |
| CC(Oc1ccccc1)C(=O)Nc1cc(NC(=O)C2C(c3cc(Cl)cc(Cl)c3)C2(Cl)Cl)ccc1Cl (racemic) [F41, trans-rac-2,2-Dichloro-N-(4-chloro-3-(2-phenoxypropanamido)phenyl)-3-(3,5-dichlorophenyl)cyclopropane-1-carboxamide] | exhibited activity |
| N#CC1(C(=O)Nc2cc(NC(=O)[C@H]3[C@H](c4cc(Cl)cc(Cl)c4)C3(Cl)Cl)ccc2Cl)CC1 (racemic) [F43, trans-rac-2,2-Dichloro-N-(4-chloro-3-(1-cyanocyclopropane-1-carboxamido)phenyl)-3-(3,5-dichlorophenyl)cyclopropane-1-carboxamide] | exhibited activity |
| O=C(Nc1cc(NC(=O)C2C(c3cc(Cl)cc(Cl)c3)C2(Cl)Cl)ccc1Cl)C1CC1(F)F (racemic) [F44, trans-rac-2,2-Dichloro-N-(4-chloro-3-(2,2-difluorocyclopropane-1-carboxamido)phenyl)-3-(3,5-dichlorophenyl)cyclopropane-1-carboxamide] | exhibited activity |
| C=CCC(=O)Nc1cc(NC(=O)[C@H]2[C@H](c3cc(Cl)cc(Cl)c3)C2(Cl)Cl)ccc1Cl (racemic) [F47, trans-rac-N-(3-But-3-enamido-4-chlorophenyl)-2,2-dichloro-3-(3,5-dichlorophenyl)cyclopropane-1-carboxamide] | exhibited activity |
| O=C(Cc1c(F)cc(F)cc1F)Nc1cc(NC(=O)[C@H]2[C@H](c3cc(Cl)cc(Cl)c3)C2(Cl)Cl)ccc1Cl (racemic) [F49, trans-rac-2,2-Dichloro-N-(4-chloro-3-(2-(2,4,6-trifluorophenyl)acetamido)phenyl)-3-(3,5-dichlorophenyl)cyclopropane-1-carboxamide] | exhibited activity |
| CC(=O)NCC(=O)Nc1cc(NC(=O)[C@H]2[C@H](c3cc(Cl)cc(Cl)c3)C2(Cl)Cl)ccc1Cl (racemic) [F51, trans-rac-N-(3-(2-Acetamidoacetamido)-4-chlorophenyl)-2,2-dichloro-3-(3,5-dichlorophenyl)cyclopropane-1-carboxamide] | exhibited activity |
| O=C(Nc1cc(NC(=O)C2C(c3cc(Cl)cc(Cl)c3)C2(Cl)Cl)ccc1Cl)C1CCCN1CC(F)(F)F (racemic) [F52, trans-rac-N-(2-Chloro-5-(2,2-dichloro-3-(3,5-dichlorophenyl)cyclopropane-1-carboxamido)phenyl)-1-(2,2,2-trifluoroethyl)pyrrolidine-2-carboxamide] | exhibited activity |
| O=C(Nc1ccc(Cl)c(NC(=O)C(F)(F)C(F)F)c1)[C@H]1[C@H](c2cc(Cl)cc(Cl)c2)C1(Cl)Cl (racemic) [F55, trans-rac-2,2-Dichloro-N-(4-chloro-3-(2,2,3,3-tetrafluoropropanamido)phenyl)-3-(3,5-dichlorophenyl)cyclopropane-1-carboxamide] | exhibited activity |
| O=C(Nc1ccc(Cl)c(NC(=O)C(F)(F)c2ccccc2)c1)[C@H]1[C@H](c2cc(Cl)cc(Cl)c2)C1(Cl)Cl (racemic) [F57, trans-rac-2,2-Dichloro-N-(4-chloro-3-(2,2-difluoro-2-phenylacetamido)phenyl)-3-(3,5-dichlorophenyl)cyclopropane-1-carboxamide] | exhibited activity |
| O=C(CN1CCOCC1)Nc1cc(NC(=O)[C@H]2[C@H](c3cc(Cl)cc(Cl)c3)C2(Cl)Cl)ccc1F (racemic) [F63, trans-rac-2,2-Dichloro-3-(3,5-dichlorophenyl)-N-(4-fluoro-3-(2-morpholinoacetamido)phenyl)cyclopropane-1-carboxamide] | exhibited activity |
| O=C(Nc1cc(NC(=O)[C@H]2[C@H](c3cc(Cl)cc(Cl)c3)C2(Cl)Cl)ccc1Cl)c1ccccc1F (racemic) [F65, trans-rac-N-(2-Chloro-5-(2,2-dichloro-3-(3,5-dichlorophenyl)cyclopropane-1-carboxamido)phenyl)-2-fluorobenzamide] | exhibited activity |
| O=C(Nc1cc(NC(=O)[C@H]2[C@H](c3cc(Cl)cc(Cl)c3)C2(Cl)Cl)ccc1Cl)c1cccc(F)c1 (racemic) [F66, trans-rac-N-(2-Chloro-5-(2,2-dichloro-3-(3,5-dichlorophenyl)cyclopropane-1-carboxamido)phenyl)-3-fluorobenzamide] | exhibited activity |
